Assay results taken from patent US20170355705A1 (GlaxoSmithKline Intellectual Property (No.2) Limited, priority 2014, published 2017).
Where two headings read alike, the source gives them in different places.

Target: T1, SIRT1 (Homo sapiens, UniProt Q96EB6)
T1 sequence (Q96EB6 1-747): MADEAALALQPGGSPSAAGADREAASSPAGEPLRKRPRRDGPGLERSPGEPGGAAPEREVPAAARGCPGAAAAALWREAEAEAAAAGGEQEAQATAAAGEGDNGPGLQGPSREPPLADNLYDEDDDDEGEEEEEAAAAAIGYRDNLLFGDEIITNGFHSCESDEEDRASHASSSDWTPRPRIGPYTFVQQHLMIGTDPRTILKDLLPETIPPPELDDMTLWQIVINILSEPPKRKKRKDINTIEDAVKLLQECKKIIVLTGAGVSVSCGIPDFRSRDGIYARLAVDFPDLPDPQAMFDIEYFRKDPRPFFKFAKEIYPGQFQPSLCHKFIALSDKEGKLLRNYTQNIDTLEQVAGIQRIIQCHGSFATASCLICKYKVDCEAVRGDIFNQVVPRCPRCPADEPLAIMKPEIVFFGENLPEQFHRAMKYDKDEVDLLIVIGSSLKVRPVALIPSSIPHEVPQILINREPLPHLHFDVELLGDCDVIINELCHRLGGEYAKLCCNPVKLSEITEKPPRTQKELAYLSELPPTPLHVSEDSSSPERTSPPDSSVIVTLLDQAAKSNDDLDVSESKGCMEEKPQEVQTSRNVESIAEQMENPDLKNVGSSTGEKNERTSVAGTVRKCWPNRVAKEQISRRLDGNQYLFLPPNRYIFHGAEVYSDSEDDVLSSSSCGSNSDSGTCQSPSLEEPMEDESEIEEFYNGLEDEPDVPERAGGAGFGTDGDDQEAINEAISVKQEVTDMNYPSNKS
Test: Trp mass spectrometry assay of SIRT1 activity (EC1.5, percent maximum activation)
Format: biochemical
How it was run: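 Steps: recombinant SIRT1 (N-His, bacterial) and NAD with p53-derived, norleucine-substituted 5TMR peptide; add compound at several concentrations; incubate 25 min; stop with 10% formic acid; freeze; quantify OAADPR by mass spec against control lacking compound.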

[1] = Trp mass spectrometry assay, EC1.5 = concentration giving 150% activation of SIRT1
[2] = Trp mass spectrometry assay, percent maximum activation of SIRT1
[3] = Trp mass spectrometry assay, 0.5 μM peptide substrate, 120 μM βNAD+, 10 nM SIRT1, 25 minutes at 25° C.

Structure (SMILES)	TRP Activity (EC1.5) [1]	TRP MAX RESP (percent maximum fold activation) [2]	TRP MAX RESP (percent maximum fold activation) [3]	also measured
Cc1cc(-c2ccc3c(n2)N(C(=O)Nc2nccc4[nH]cnc24)[C@H]2CCN3C2)ccn1 [Example 145, (4S)-N-(1H-imidazo[4,5-c]pyridin-4-yl)-7-(2-methylpyridin-4-yl)-3,4-dihydro-1,4-methanopyrido[2,3-b][1,4]diazepine-5(2H)-carboxamide]	B (EC1.5 1-25 μM)	A (Fold activation ≧150%)		
Cc1cc(-c2ccc3c(n2)N(C(=O)N[C@H](C)c2ccccn2)[C@H]2CCN3C2)ccn1 [Example 169, (4S)-7-(2-methylpyridin-4-yl)-N-((R)-1-(pyridin-2-yl)ethyl)-3,4-dihydro-1,4-methanopyrido[2,3-b][1,4]diazepine-5(2H)-carboxamide]	C (EC1.5>25 μM)	B (Fold Activation <150%)		
Cc1ccc(-c2nc3c(cc2Cl)N2CC[C@@H](C2)N3C(=O)Nc2cccnc2)cn1 [Example 3, (4S)-8-chloro-7-(6-methylpyridin-3-yl)-N-(pyridin-3-yl)-3,4-dihydro-1,4-methanopyrido[2,3-b][1,4]diazepine-5(2H)-carboxamide]				TRP Activity (EC1.5): B (key: A: EC1.5<1 μM; B: EC1.5 1-25 μM; EC1.5>25 μM); TRP MAX RESP (percent maximum fold activation): A (key: A: Fold activation ≧150%; B: Fold Activation <150%)
O=C(Nc1cnccn1)N1c2nc(-c3ccnc(CO)c3)ccc2N2CC[C@H]1C2 [Example 218, (4S)-7-(2-(Hydroxymethyl)pyridin-4-yl)-N-(pyrazin-2-yl)-3,4-dihydro-1,4 methanopyrido[2,3-b][1,4]diazepine-5(2H)-carboxamide]			A (Fold activation ≧150%)	TRP Activity (EC1.5, concentration of test compound that results in 150% activation of SIRT1) [3]: B (EC1.5 1-25 μM)
Cc1cc(-c2ccc3c(n2)N(C(=O)NCc2ccccn2)[C@H]2CCN3C2)ccn1 [Example 186, (4S)-7-(2-methylpyridin-4-yl)-N-(pyridin-2-ylmethyl)-3,4-dihydro-1,4-methanopyrido[2,3-b][1,4]diazepine-5(2H)-carboxamide]	C (EC1.5>25 μM)	B (Fold Activation <150%)		
Cc1cc(-c2nc3c(cc2C)N2CC[C@@H](C2)N3C(=O)Nc2cccnc2)ccn1 [Example 17, (4S)-8-methyl-7-(2-methylpyridin-4-yl)-N-(pyridin-3-yl)-3,4-dihydro-1,4-methano pyrido[2,3-b][1,4]diazepine-5(2H)-carboxamide]	B (EC1.5 1-25 μM)	A (Fold activation ≧150%)		
O=C(Nc1ccnc(OC[C@@H](O)CO)c1)N1c2nc(-c3cccc(C(F)(F)F)c3)c(Cl)cc2N2CC[C@H]1C2 [Example 61, (4S)-8-chloro-N-(2-((S)-2,3-dihydroxypropoxy)pyridin-4-yl)-7-(3-(trifluoromethyl)phenyl)-3,4-dihydro-1,4-methanopyrido[2,3-b][1,4]diazepine-5(2H)-carboxamide]	A (EC1.5<1 μM)	A (Fold activation ≧150%)		
O=C(Nc1cncc(OC[C@@H](O)CO)n1)N1c2nc(-c3cccc(C(F)(F)F)c3)c(Cl)cc2N2CC[C@H]1C2 [Example 45, (4S)-8-chloro-N-(6-((S)-2,3-dihydroxypropoxy)pyrazin-2-yl)-7-(3-(trifluoromethyl)phenyl)-3,4-dihydro-1,4-methanopyrido[2,3-b][1,4]diazepine-5(2H)-carboxamide]	A (EC1.5<1 μM)	A (Fold activation ≧150%)		
O=C(Nc1cnccn1)N1c2nc(-c3ccnc(C4CC4)c3)ccc2N2CC[C@H]1C2 [Example 136, (4S)-7-(2-cyclopropylpyridin-4-yl)-N-(pyrazin-2-yl)-3,4-dihydro-1,4-methanopyrido[2,3-b][1,4]diazepine-5(2H)-carboxamide]	A (EC1.5<1 μM)	A (Fold activation ≧150%)		
Cc1ccc(-c2ccc3c(n2)N(C(=O)Nc2cncc(C)n2)[C@H]2CCN3C2)cn1 [Example 238, (4S)-N-(6-methylpyrazin-2-yl)-7-(6-methylpyridin-3-yl)-3,4-dihydro-1,4-methanopyrido[2,3-b][1,4]diazepine-5(2H)-carboxamide]			A (Fold activation ≧150%)	TRP Activity (EC1.5, concentration of test compound that results in 150% activation of SIRT1) [3]: B (EC1.5 1-25 μM)
Cc1cc(-c2ccc3c(n2)N(C(=O)Nc2cc(CCC(O)CO)ccn2)[C@H]2CCN3C2)ccn1 (single isomer, unassigned) [Example 359]			A (Fold activation ≧150%)	TRP Activity (EC1.5, concentration of test compound that results in 150% activation of SIRT1) [3]: B (EC1.5 1-25 μM)
Cc1ccc(-c2ccc3c(n2)N(C(=O)Nc2cccc4cnccc24)[C@H]2CCN3C2)cn1 [Example 209, (4S)-N-(isoquinolin-5-yl)-7-(6-methylpyridin-3-yl)-3,4-dihydro-1,4-methanopyrido[2,3-b][1,4]diazepine-5(2H)-carboxamide]			A (Fold activation ≧150%)	TRP Activity (EC1.5, concentration of test compound that results in 150% activation of SIRT1) [3]: B (EC1.5 1-25 μM)
O=C(Nc1cncc(OCCCO)n1)N1c2nc(-c3cccc(C(F)(F)F)c3)ccc2N2CC[C@H]1C2 [Example 319]			A (Fold activation ≧150%)	
Cc1ccc(-c2nc3c(cc2C(F)(F)F)N2CC[C@@H](C2)N3C(=O)Nc2cccnc2)cn1 [Example 1, (4S)-7-(6-methylpyridin-3-yl)-N-(pyridin-3-yl)-8-(trifluoromethyl)-3,4-dihydro-1,4-methanopyrido[2,3-b][1,4]diazepine-5(2H)-carboxamide]	C (EC1.5>25 μM)	B (Fold Activation <150%)		
Cc1ccc(-c2cc(C)c3c(n2)N(C(=O)Nc2cccnc2)[C@H]2CCN3C2)cn1 [Example 13, (4S)-9-methyl-7-(6-methylpyridin-3-yl)-N-(pyridin-3-yl)-3,4-dihydro-1,4-methanopyrido[2,3-b][1,4]diazepine-5(2H)-carboxamide]	B (EC1.5 1-25 μM)	A (Fold activation ≧150%)		
Cc1cc(-c2nc3c(cc2F)N2CC[C@@H](C2)N3C(=O)Nc2ccccn2)ccn1 [Example 15, (4S)-8-fluoro-7-(2-methylpyridin-4-yl)-N-(pyridin-2-yl)-3,4-dihydro-1,4-methanopyrido[2,3-b][1,4]diazepine-5(2H)-carboxamide]	A (EC1.5<1 μM)	A (Fold activation ≧150%)		
Cc1cc(-c2ccc3c(n2)N(C(=O)Nc2cc(N4C[C@@H](C)O[C@@H](C)C4)ccn2)[C@H]2CCN3C2)ccn1 [Example 357, (4S)-N-(4-((2S,6R)-2,6-dimethylmorpholino)pyridin-2-yl)-7-(2-methylpyridin-4-yl)-3,4-dihydro-1,4-methanopyrido[2,3-b][1,4]diazepine-5(2H)-carboxamide]			A (Fold activation ≧150%)	TRP Activity (EC1.5, concentration of test compound that results in 150% activation of SIRT1) [3]: A (EC1.5<1 μM)
O=C(Nc1cnccn1)N1c2nc(-c3ccnc(C(F)F)c3)ccc2N2CC[C@H]1C2 [Example 216, (4S)-7-(2-(difluoromethyl)pyridin-4-yl)-N-(pyrazin-2-yl)-3,4-dihydro-1,4-methanopyrido[2,3-b][1,4]diazepine-5(2H)-carboxamide]			A (Fold activation ≧150%)	TRP Activity (EC1.5, concentration of test compound that results in 150% activation of SIRT1) [3]: A (EC1.5<1 μM)
O=C(Nc1nccc(OC[C@@H](O)CO)n1)N1c2nc(-c3cccc(C(F)(F)F)c3)c(Cl)cc2N2CC[C@H]1C2 [Example 57, (4S)-8-chloro-N-(4-((S)-2,3-dihydroxypropoxy)pyrimidin-2-yl)-7-(3-(trifluoromethyl)phenyl)-3,4-dihydro-1,4-methanopyrido[2,3-b][1,4]diazepine-5(2H)-carboxamide]	A (EC1.5<1 μM)	A (Fold activation ≧150%)		
CCc1cc(-c2ccc3c(n2)N(C(=O)Nc2cnccn2)[C@H]2CCN3C2)ccn1 [Example 139, (4S)-7-(2-ethylpyridin-4-yl)-N-(pyrazin-2-yl)-3,4-dihydro-1,4-methanopyrido[2,3-b][1,4]diazepine-5(2H)-carboxamide]	A (EC1.5<1 μM)	A (Fold activation ≧150%)		
O=C(Nc1cnccn1)N1c2nc(-c3ccc(CO)nc3)ccc2N2CC[C@H]1C2 [Example 147, (4S)-7-(6-(hydroxymethyl)pyridin-3-yl)-N-(pyrazin-2-yl)-3,4-dihydro-1,4-methanopyrido[2,3-b][1,4]diazepine-5(2H)-carboxamide]	B (EC1.5 1-25 μM)	A (Fold activation ≧150%)		
